Experimental data as given in the NIST ThermoML archive (doi:10.1021/je0602519).

Experiment: xn = mol fraction of the nth substance listed
Conditions: 101 kPa, Liquid; for speed of sound: Frequency=2 MHz, Linear variable-path acoustic interferometer; for mass density: Pycnometric method

CCCCCCCO [heptan-1-ol] + Cc1ccccc1
Conditions | mass density, 303.15 K [kg/m3] | mass density, 313.15 K [kg/m3] | speed of sound, 303.15 K [m/s] | speed of sound, 313.15 K [m/s] | viscosity, 303.15 K [mPa·s] | viscosity, 313.15 K [mPa·s]
x2 = 0 | 814.89 | 807.68 | 1313 | 1279 | 5.048 | 3.712
x2 = 0.0525 | 816.52 | 809.17 | 1310 | 1274 | 4.404 | 3.362
x2 = 0.1014 | 818.06 | 810.59 | 1307 | 1271 | 3.859 | 3.074
x2 = 0.1518 | 819.67 | 812.07 | 1304 | 1267 | 3.4 | 2.77
x2 = 0.1859 | 820.78 | 813.13 | 1301 | 1263 | 3.154 | 2.55
x2 = 0.2489 | 822.84 | 815.02 | 1296 | 1258 | 2.645 | 2.226
x2 = 0.3011 | 824.61 | 816.69 | 1291 | 1251 | 2.314 | 1.986
x2 = 0.3504 | 826.34 | 818.24 | 1286 | 1247 | 2.042 | 1.77
x2 = 0.4006 | 828.07 | 819.87 | 1282 | 1242 | 1.796 | 1.583
x2 = 0.4494 | 829.88 | 821.57 | 1278 | 1237 | 1.594 | 1.436
x2 = 0.5003 | 831.83 | 823.35 | 1274 | 1233 | 1.399 | 1.271
x2 = 0.5486 | 833.72 | 825.14 | 1271 | 1230 | 1.25 | 1.144
x2 = 0.5903 | 835.44 | 826.72 | 1269 | 1227 | 1.113 | 1.069
x2 = 0.6493 | 837.95 | 829.09 | 1266 | 1226 | 0.982 | 0.965
x2 = 0.7011 | 840.28 | 831.32 | 1266 | 1225 | 0.888 | 0.84
x2 = 0.752 | 842.69 | 833.57 | 1267 | 1226 | 0.776 | 0.772
x2 = 0.8041 | 845.27 | 836.02 | 1268 | 1228 | 0.673 | 0.682
x2 = 0.8495 | 847.69 | 838.32 | 1272 | 1232 | 0.635 | 0.639
x2 = 0.9009 | 850.55 | 841.07 | 1276 | 1239 | 0.588 | 0.573
x2 = 0.9487 | 853.39 | 843.85 | 1282 | 1245 | 0.546 | 0.528

CCCCCCCCO [octan-1-ol] + Cc1ccccc1
Conditions | mass density, 303.15 K [kg/m3] | mass density, 313.15 K [kg/m3] | speed of sound, 303.15 K [m/s] | speed of sound, 313.15 K [m/s] | viscosity, 303.15 K [mPa·s] | viscosity, 313.15 K [mPa·s]
x2 = 0 | 818.38 | 811.05 | 1334 | 1304 | 6.433 | 4.603
x2 = 0.0495 | 819.62 | 812.14 | 1329 | 1300 | 5.63 | 4.13
x2 = 0.1104 | 821.19 | 813.56 | 1325 | 1293 | 4.775 | 3.645
x2 = 0.1513 | 822.25 | 814.55 | 1321 | 1287 | 4.281 | 3.261
x2 = 0.1999 | 823.55 | 815.73 | 1316 | 1282 | 3.788 | 2.832
x2 = 0.2517 | 824.98 | 817.04 | 1310 | 1274 | 3.28 | 2.545
x2 = 0.2997 | 826.34 | 818.29 | 1304 | 1268 | 2.952 | 2.218
x2 = 0.356 | 828.02 | 819.85 | 1297 | 1262 | 2.504 | 1.944
x2 = 0.3998 | 829.32 | 821.03 | 1291 | 1255 | 2.229 | 1.715
x2 = 0.4506 | 830.99 | 822.56 | 1286 | 1250 | 1.974 | 1.518
x2 = 0.5001 | 832.63 | 824.08 | 1281 | 1242 | 1.758 | 1.37
x2 = 0.5513 | 834.46 | 825.77 | 1276 | 1238 | 1.541 | 1.175
x2 = 0.6014 | 836.31 | 827.51 | 1272 | 1234 | 1.35 | 1.084
x2 = 0.6495 | 838.22 | 829.3 | 1270 | 1231 | 1.214 | 0.935
x2 = 0.6997 | 840.36 | 831.29 | 1268 | 1228 | 1.065 | 0.866
x2 = 0.7569 | 842.9 | 833.69 | 1267 | 1228 | 0.931 | 0.754
x2 = 0.8012 | 845.02 | 835.74 | 1268 | 1229 | 0.819 | 0.703
x2 = 0.8527 | 847.7 | 838.28 | 1269 | 1232 | 0.733 | 0.636
x2 = 0.9 | 850.32 | 840.85 | 1273 | 1236 | 0.646 | 0.558
x2 = 0.954 | 853.6 | 844 | 1280 | 1245 | 0.576 | 0.526

CCCCCCCCCCO [decan-1-ol] + Cc1ccccc1
Conditions | mass density, 303.15 K [kg/m3] | mass density, 313.15 K [kg/m3] | speed of sound, 303.15 K [m/s] | speed of sound, 313.15 K [m/s] | viscosity, 303.15 K [mPa·s] | viscosity, 313.15 K [mPa·s]
x2 = 0 | 822.87 | 815.97 | 1366 | 1334 | 9.716 | 6.82
x2 = 0.0507 | 823.76 | 816.74 | 1361 | 1327 | 8.474 | 6.06
x2 = 0.1015 | 824.73 | 817.58 | 1355 | 1320 | 7.424 | 5.343
x2 = 0.1473 | 825.62 | 818.34 | 1349 | 1314 | 6.635 | 4.771
x2 = 0.2091 | 826.88 | 819.45 | 1340 | 1305 | 5.658 | 4.059
x2 = 0.2577 | 827.9 | 820.38 | 1333 | 1297 | 4.962 | 3.552
x2 = 0.3006 | 828.84 | 821.2 | 1327 | 1292 | 4.458 | 3.112
x2 = 0.3496 | 829.95 | 822.24 | 1318 | 1283 | 3.848 | 2.71
x2 = 0.4028 | 831.22 | 823.38 | 1311 | 1275 | 3.32 | 2.263
x2 = 0.4516 | 832.48 | 824.49 | 1303 | 1268 | 2.843 | 1.903
x2 = 0.4989 | 833.77 | 825.69 | 1295 | 1261 | 2.499 | 1.678
x2 = 0.5497 | 835.29 | 827.06 | 1290 | 1255 | 2.152 | 1.47
x2 = 0.6009 | 836.92 | 828.57 | 1285 | 1249 | 1.883 | 1.305
x2 = 0.6498 | 838.61 | 830.11 | 1280 | 1245 | 1.594 | 1.162
x2 = 0.7065 | 840.8 | 832.12 | 1275 | 1240 | 1.414 | 0.994
x2 = 0.7524 | 842.7 | 833.86 | 1274 | 1239 | 1.15 | 0.905
x2 = 0.8069 | 845.15 | 836.21 | 1273 | 1239 | 1.021 | 0.79
x2 = 0.8472 | 847.18 | 838.04 | 1274 | 1240 | 0.887 | 0.732
x2 = 0.9063 | 850.54 | 841.18 | 1278 | 1243 | 0.75 | 0.64
x2 = 0.9489 | 853.12 | 843.58 | 1282 | 1248 | 0.599 | 0.565
